Measured values: the supplement of paper PMC10307832

Columns and labels:
Experiment in all cases: relative viability (nuclei count vs DMSO), 5 days (fraction); higher = more cells survive
[1] = compound: COC1=CC=C(C=C1)CN2C=CC3=C2C=C(C=C3)C(=O)NO + Cc1nc(NC(=O)N2CCC[C@H]2C(N)=O)sc1-c1ccnc(C(C)(C)C(F)(F)F)c1 [Alpelisib] (partner 2 µM)
Outline: (§1)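 Relative viability is defined as nuclei in treated wells over nuclei in vehicle wells. Duplicate plates were run and medians reported. Lung cancer cell lines in 1536-well plates were dosed by pin tool one day after seeding, with one drug or with a fixed anchor-drug dose plus five library-drug doses (not always all listed) in √10 steps, and nuclei were counted after 5 days.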

Veliparib + Palbociclib = compound: C[C@]1(c2nc3c(C(N)=O)cccc3[nH]2)CCCN1 [Veliparib] + CC(=O)c1c(C)c2cnc(Nc3ccc(N4CCNCC4)cn3)nc2n(C2CCCC2)c1=O [Palbociclib] (partner 0.5 µM)
Outline: as §1

Veliparib + AZD7762 = compound: C[C@]1(c2nc3c(C(N)=O)cccc3[nH]2)CCCN1 [Veliparib] + NC(=O)Nc1cc(-c2cccc(F)c2)sc1C(=O)N[C@H]1CCCNC1 [AZD7762] (partner 0.2 µM)
Outline: as §1

Veliparib + Bortezomib = compound: C[C@]1(c2nc3c(C(N)=O)cccc3[nH]2)CCCN1 [Veliparib] + CC(C)C[C@H](NC(=O)[C@H](Cc1ccccc1)NC(=O)c1cnccn1)B(O)O [Bortezomib] (partner 0.002 µM)
Outline: as §1

Row | Cell Line | relative viability ([1]; first compound 0.08 µM) | relative viability ([1]; first compound 0.253 µM) | relative viability ([1]; first compound 0.8 µM) | relative viability ([1]; first compound 2.53 µM) | relative viability ([1]; first compound 8 µM) | relative viability (Veliparib + Palbociclib; first compound 0.02 µM) | relative viability (Veliparib + Palbociclib; first compound 0.06325 µM) | relative viability (Veliparib + Palbociclib; first compound 0.2 µM) | relative viability (Veliparib + Palbociclib; first compound 0.6325 µM) | relative viability (Veliparib + Palbociclib; first compound 2 µM) | relative viability (Veliparib + AZD7762; first compound 0.02 µM) | relative viability (Veliparib + AZD7762; first compound 0.06325 µM) | relative viability (Veliparib + AZD7762; first compound 0.2 µM) | relative viability (Veliparib + AZD7762; first compound 0.6325 µM) | relative viability (Veliparib + AZD7762; first compound 2 µM) | relative viability (Veliparib + Bortezomib; first compound 0.02 µM) | relative viability (Veliparib + Bortezomib; first compound 0.06325 µM) | relative viability (Veliparib + Bortezomib; first compound 0.2 µM) | relative viability (Veliparib + Bortezomib; first compound 0.6325 µM) | relative viability (Veliparib + Bortezomib; first compound 2 µM)
1 | SK-MES-1 | 0.924 | 0.946 | 0.861 | 0.76 | 0.823 | 0.334 | 0.278 | 0.329 | 0.307 | 0.297 |  |  |  |  |  |  |  |  |  | 
2 | NCI-H2170 | 0.714 | 0.941 | 0.837 | 0.793 | 0.838 | 0.43 | 0.446 | 0.435 | 0.386 | 0.399 | 0.849 | 0.904 | 0.786 | 0.829 | 0.734 |  |  |  |  | 
3 | A549 | 0.643 | 0.812 | 0.743 | 0.749 | 0.58 |  |  |  |  |  |  |  |  |  |  |  |  |  |  | 
4 | NCI-H1944 |  | 0.897 | 0.731 | 0.774 | 0.795 | 0.302 | 0.348 | 0.355 | 0.324 | 0.329 | 0.521 | 0.592 | 0.504 | 0.511 | 0.529 |  |  |  |  | 
5 | NCI-H1793 | 0.626 | 0.874 | 0.786 | 0.546 | 0.728 | 0.31 | 0.292 | 0.336 | 0.348 | 0.331 | 0.532 | 0.518 | 0.592 | 0.56 | 0.581 |  |  |  |  | 
6 | NCI-H596 | 0.532 | 0.53 | 0.384 | 0.561 | 0.474 |  |  |  |  |  | 1.34 | 1.22 | 1.17 | 1.13 | 0.952 | 1.14 | 1 | 1.06 | 1.11 | 0.902
7 | SW 900 |  |  |  |  |  |  | 0.516 | 0.557 | 0.539 | 0.56 |  | 0.575 | 0.526 | 0.59 | 0.591 |  |  |  |  | 
8 | NCI-H1650 |  |  |  |  |  | 0.236 | 0.305 | 0.28 | 0.322 | 0.345 |  |  |  |  |  |  | 0.195 | 0.204 | 0.2 | 0.182
9 | NCI-H1299 | 1.09 | 1.05 | 1.05 | 1.08 | 1.04 |  |  |  |  |  |  |  |  |  |  | 1.04 | 0.979 | 1.02 | 1.03 | 1
10 | NCI-H2023 | 0.58 | 0.646 | 0.507 | 0.586 | 0.639 |  | 0.329 | 0.391 | 0.346 | 0.398 |  |  |  |  |  | 0.505 | 0.913 | 0.937 | 0.965 | 0.924
11 | UMC-11 | 0.526 | 0.986 | 0.92 | 1.12 | 1.05 | 0.314 | 0.303 | 0.318 | 0.331 | 0.368 |  |  |  |  |  | 0.592 | 0.727 | 0.668 | 0.685 | 0.667
12 | NCI-H1563 | 0.798 | 0.947 | 0.946 | 0.964 | 0.839 |  |  |  |  |  |  |  |  |  |  | 0.645 | 0.803 | 0.859 | 0.792 | 0.799
13 | NCI-H522 |  |  |  |  |  | 1.01 | 0.864 | 1.18 | 1.11 | 1 | 0.805 | 0.896 | 0.846 | 0.87 | 0.873 |  |  |  |  | 
